{"source": "patent US20040147581A1", "about": "“Method of using a Cox-2 inhibitor and a 5-HT1A receptor modulator as a combination therapy” (Pharmacia Corporation, priority 2002, published 2004)", "origin": "cited, not measured here", "system": "fibroblast growth factor-induced corneal angiogenesis", "settings": "rats", "data": [{"smiles": "Cc1ccc(-c2cc(C(F)(F)F)nn2-c2ccc(S(N)(=O)=O)cc2)cc1", "note": "[Celecoxib, celecoxib]", "values": [{"measurement": "inhibition of fibroblast growth factor-induced corneal angiogenesis", "result": "potent inhibition"}]}]}
